Experimental data as given in ChEMBL document CHEMBL1134498, “Experimental and computational screening models for the prediction of intestinal drug absorption” (J Med Chem, 2001).
Where a SMILES comes first, the peptide text is derived from it.

Assays:
Homo sapiens = organism: Homo sapiens; assay: Ratio of [(apical to basal)/(basal to apical)] (Caco-2 cell monolayer); format: ADME
[1] = Cellular permeability (Pc) (Caco-2 cell monolayer); format: ADME; conditions: human, read-out: Pc
[2] = Apparent permeability coefficient (Papp) (Caco-2 cell monolayer); format: ADME, cell-based; conditions: human

SMILES | Ratio (Homo sapiens) | Papp [1] | Papp [2]
OC[C@H]1O[C@H](OC[C@H]2O[C@H](O[C@]3(CO)O[C@H](CO)[C@@H](O)[C@@H]3O)[C@H](O)[C@@H](O)[C@@H]2O)[C@H](O)[C@@H](O)[C@H]1O [RAFFINOSE] | 1.2 | 0.047 ×10⁻⁶ cm/s | 0.051 ×10⁻⁶ cm/s
OC[C@@H](O)[C@@H](O)[C@H](O)[C@H](O)CO [MANNITOL] | 0.89 | 0.19 ×10⁻⁶ cm/s | 0.11 ×10⁻⁶ cm/s
CC(C)NCC(O)COc1cccc2[nH]ccc12 (stereo unspecified) [PINDOLOL] | ~ 1 | – | 36 ×10⁻⁶ cm/s
OC[C@H]1O[C@@H](O[C@@H]2[C@@H](CO)O[C@](O)(CO)[C@H]2O)[C@H](O)[C@@H](O)[C@H]1O [LACTULOSE] | 1.4 | 0.27 ×10⁻⁶ cm/s | 0.3 ×10⁻⁶ cm/s
N=C(N)NC(=O)c1nc(Cl)c(N)nc1N [AMILORIDE] | – | 0.78 ×10⁻⁶ cm/s | 0.56 ×10⁻⁶ cm/s
CN/C(=N/CCSCc1nc[nH]c1C)NC#N [CIMETIDINE] | 1.8 | 1.2 ×10⁻⁶ cm/s | 1.23 ×10⁻⁶ cm/s
CCN1CCCC1CNC(=O)c1cc(S(N)(=O)=O)ccc1OC (stereo unspecified) [SULPIRIDE] | – | 0.39 ×10⁻⁶ cm/s | 0.23 ×10⁻⁶ cm/s
COCCc1ccc(OCC(O)CNC(C)C)cc1 (stereo unspecified) [METOPROLOL] | 1 | – | 64 ×10⁻⁶ cm/s
Cc1ccccc1N1C(=O)c2cc(S(N)(=O)=O)c(Cl)cc2NC1C (stereo unspecified) [METOLAZONE] | 0.64 | 6.1 ×10⁻⁶ cm/s | 6.2 ×10⁻⁶ cm/s
Cc1cc(=O)n(-c2ccccc2)n1C [ANTIPYRINE] | 1.1 | 215 ×10⁻⁶ cm/s | 77 ×10⁻⁶ cm/s
CCCc1nn(C)c2c(=O)[nH]c(-c3cc(S(=O)(=O)N4CCN(C)CC4)ccc3OCC)nc12 | 0.83 | 87 ×10⁻⁶ cm/s | 48 ×10⁻⁶ cm/s
O=C(O)P(=O)(O)O [FOSCARNET] | 0.65 | 0.05 ×10⁻⁶ cm/s | 0.045 ×10⁻⁶ cm/s
NC(=O)[C@H](Cc1ccccc1)NC(=O)[C@H](Cc1ccccc1)NC(=O)[C@H](CCCN=C(N)N)NC(=O)[C@@H](N)Cc1ccc(O)cc1 (H-YRFF-NH2) | 0.41 | 0.023 ×10⁻⁶ cm/s | 0.037 ×10⁻⁶ cm/s
O=C(O)c1cc(/N=N/c2ccc(S(=O)(=O)Nc3ccccn3)cc2)ccc1O [SULFASALAZINE] | 0.087 | 0.16 ×10⁻⁶ cm/s | 0.16 ×10⁻⁶ cm/s
C[C@H](NC(=O)[C@@H](N)Cc1ccc(O)cc1)C(=O)N[C@@H](Cc1ccccc1)C(=O)N[C@@H](Cc1ccccc1)C(N)=O (H-YAFF-NH2) | – | 0.022 ×10⁻⁶ cm/s | 0.04 ×10⁻⁶ cm/s
C=CCOc1ccccc1OCC(O)CNC(C)C (stereo unspecified) [OXPRENOLOL] | ~ 1 | – | 61 ×10⁻⁶ cm/s
C=CCc1ccccc1OCC(O)CNC(C)C (stereo unspecified) [ALPRENOLOL] | ~ 1 | – | 88 ×10⁻⁶ cm/s
CC(=O)Nc1ccc(OCC(O)CNC(C)C)cc1 (stereo unspecified) [PRACTOLOL] | ~ 1 | – | 1.8 ×10⁻⁶ cm/s
